Earlier results as cited in patent US11925657B2, “Formulations and methods for treating conditions of the eye” (Sight Sciences, Inc., priority 2020, dated 2024).

Columns and labels:
[1] = antibiotic levels of azithromycin (1%)
[2] = lower concentrations, e.g. 0.1% and 0.35%

Compound | phase transition temperature of meibum lipids and lipid ordering [1] | efficacy toward intended rosacea treatment [2]
CC[C@H]1OC(=O)[C@H](C)[C@@H](O[C@H]2C[C@@](C)(OC)[C@@H](O)[C@H](C)O2)[C@H](C)[C@@H](O[C@@H]2O[C@H](C)C[C@H](N(C)C)[C@H]2O)[C@](C)(O)C[C@@H](C)CN(C)[C@H](C)[C@@H](O)[C@]1(C)O [azithromycin] | can improve | 
ivermectin |  | lose efficacy
